# Assay results published in patent publication US7825129B2, “Thieno[2,3-c] isoquinolines for use as inhibitors of PARP” (priority 2000, dated 2010).
# How the values were obtained:
# [1] = biological target: T1, poly(ADP-ribose) polymerase (PARP) (Bos taurus, UniProt P18493); assay: Activity against purified PARP, [3H]NAD incorporation; format: biochemical; conditions: purified PARP from foetal calf thymus, 37° C., 30 mins; read-out: IC50 of PARP inhibitors tested on enzyme prepared from bovine thymus
# T1 construct: purified PARP derived from foetal calf thymus; from tissue; host or cells: foetal calf thymus
# Protocol: The activity on PARP was evaluated using purified PARP derived from foetal calf thymus, as per Ito et al. (J. Biol. Chem. […]: 3647, 1979). […] The active fractions were used for the activity tests carried out as per Banasik et al. (J. Biol. Chem. 267: 1569, 1992). […] The reaction was terminated with 10% of trichloroacetic acid and the radioactivity associated with the protein was evaluated in a liquid scintillation spectrometer.
# [2] = tested on: primary neuronal cultures; assay: Post-ischaemic neuronal death in primary neuronal cultures exposed to oxygen and glucose deprivation; format: cell-based; conditions: read-out: IC50 for reducing post-ischaemic neuronal death
# Protocol: (§1) 2) The biological activity was evaluated in primary neuronal cultures exposed to oxygen and glucose deprivation (see: Neuropharmacology 38: 1007-[…]) and in vivo in rats with MCA [sic]. The volume of the infarct was measured 72 hrs after the occlusion using a method described previously (Cozzi et al., J. Cerebrali Blood Flow Metabolism 19: 771-777; 1999).
# [3] = tested on: rats with permanent occlusion of the medial cerebral artery; assay: MCAO stroke model in rats, infarct volume; format: in vivo, rat; conditions: 3-10 mg/kg i.p., infarct volume measured 72 hrs after occlusion
# Protocol: as §1
# In this stroke model, the compound (3-10 mg/kg i.p.) reduced by 40% the volume of necrotic brain induced by the permanent occlusion of the medial cerebral artery.
# T1 sequence (P18493 whole entry): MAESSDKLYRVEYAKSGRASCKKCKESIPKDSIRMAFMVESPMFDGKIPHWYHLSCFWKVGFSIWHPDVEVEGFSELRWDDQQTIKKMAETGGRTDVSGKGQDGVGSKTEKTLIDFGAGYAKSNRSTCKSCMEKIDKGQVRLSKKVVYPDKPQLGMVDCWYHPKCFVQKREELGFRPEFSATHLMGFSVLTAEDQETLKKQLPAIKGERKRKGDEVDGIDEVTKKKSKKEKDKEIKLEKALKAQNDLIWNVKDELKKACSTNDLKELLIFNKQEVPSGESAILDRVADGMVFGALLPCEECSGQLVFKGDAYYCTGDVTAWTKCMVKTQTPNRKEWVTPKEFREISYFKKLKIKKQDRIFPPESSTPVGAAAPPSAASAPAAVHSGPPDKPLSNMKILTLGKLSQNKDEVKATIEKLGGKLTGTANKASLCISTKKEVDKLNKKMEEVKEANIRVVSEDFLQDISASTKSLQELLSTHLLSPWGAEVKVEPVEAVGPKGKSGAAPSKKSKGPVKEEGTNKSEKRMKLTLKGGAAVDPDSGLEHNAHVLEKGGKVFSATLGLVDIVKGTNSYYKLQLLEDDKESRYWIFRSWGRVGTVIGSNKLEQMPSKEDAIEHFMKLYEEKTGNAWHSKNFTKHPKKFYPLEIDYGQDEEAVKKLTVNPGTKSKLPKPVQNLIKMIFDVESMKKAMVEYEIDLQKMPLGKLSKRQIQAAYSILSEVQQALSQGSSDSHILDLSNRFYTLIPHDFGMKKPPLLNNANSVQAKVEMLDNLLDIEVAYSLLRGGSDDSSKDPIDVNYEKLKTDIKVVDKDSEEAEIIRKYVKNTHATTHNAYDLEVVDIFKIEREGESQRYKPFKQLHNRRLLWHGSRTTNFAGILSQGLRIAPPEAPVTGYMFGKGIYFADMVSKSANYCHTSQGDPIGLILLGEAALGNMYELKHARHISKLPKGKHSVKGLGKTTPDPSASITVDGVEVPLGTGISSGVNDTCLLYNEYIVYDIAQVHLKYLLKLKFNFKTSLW
Compound,IC50 [1],melting point,IC50 [2],reduction of the volume of necrotic brain [3]
"O=c1[nH]c2sccc2c2c(O)cccc12 [Example 2, 9-Hydroxythieno[2,3-c]isoquinolin-5(4H)-one]",0.1 µM,298 to 301 °C,,
"NC(=O)c1ccccc1 [Benzamide, reference compound]",90 µM,,,
"COc1cccc2c(=O)[nH]c3sccc3c12 [Example 3, 9-Methoxythieno[2,3-c]isoquinolin-5(4H)-one]",0.3 µM,198 to 200 °C,,
"Nc1cccc2c(=O)[nH]c3sccc3c12 [Example 4, 9-Aminothieno[2,3-c]isoquinolin-5(4H)-one]",0.05 µM,297 to 299 °C,,
"O=c1[nH]c2sccc2c2ccccc12 [Example 1, Thieno[2,3-c]isoquinolin-5(4H)-one]",,,~3 µM,40%
